Results reported in patent US9682980B2, “Positive allosteric modulators of mGluR2” (BRISTOL-MYERS SQUIBB COMPANY, priority 2012, dated 2017).

Molecular target: human mGluR2 (Homo sapiens (Human), UniProt Q14416)
Test: MGluR2 cAMP assay
Format: cell-based
Details: HEK293 cells clonally expressing human mGluR2, 1 μM forskolin, 1 μM LY-341495
Experimental: Clonally expressed human mGluR2 in HEK293 background was glutamate starved overnight in media without glutamine (GIBCO MEM 12360), containing 10% FBS, 1% penicillin streptomycin.
On the day of the assay, media was removed, cells washed with PBS, cells harvested and pelleted by centrifugation. Cell pellets were resuspended in stimulation buffer without forskolin and counted. A solution of 1.25×10^6 cells/ml was prepared and dispensed to plates using a Combi liquid handler (Thermo). A standard curve was created using a top concentration of cAMP of 1 μM in the stimulation buffer, 1:3 dilutions over 14 points in the absence of cells. Plates were read by time-resolved fluorescence at […] and a ratio was calculated via in house software, (665 nM/618 nM)*10^4. In house software converted the fluorescence value ratios to units of cAMP concentration, which is then used to calculate % inhibition for each test compound.
Compounds were added to white, standard volume 384 non-binding surface plates (Corning 3574). Cells were resuspended in stimulation buffer consisting of Hanks Balanced Salt Solution (14175-095) pH 7.0, 20 mM HEPES, 2.0 mM CaCl2, 5.0 mM MgCl2, and 1 mM IBMX (Sigma 15879), 1 μM forskolin, and 1 μM LY-341495, for 30 minutes. Buffer without forskolin was used as a negative control. Solutions of D2 and cryptate detection reagents from the CISBIO dynamic cAMP kit (62AM4PEJ) were diluted 1:40 in lysis buffer. Lysis buffer consisted of 50 mM Phosphate Buffer pH 7.0, 800 mM Potassium Fluoride, 0.2% BSA, and 1.0% Triton. Assay reaction was terminated by addition of detection reagents in lysis buffer. One hour later, plates were read on a PE Viewlux. Data was extracted, and concentration response curves generated by fitting the data to a standard 4 parameter logistic equation from which EC50 values were determined See table 1: A: <10 nM; B: 10-100 nM; C: 100-1000 nM; D: 1000-10000 nM.

Sequence of human mGluR2 (Q14416 19-872): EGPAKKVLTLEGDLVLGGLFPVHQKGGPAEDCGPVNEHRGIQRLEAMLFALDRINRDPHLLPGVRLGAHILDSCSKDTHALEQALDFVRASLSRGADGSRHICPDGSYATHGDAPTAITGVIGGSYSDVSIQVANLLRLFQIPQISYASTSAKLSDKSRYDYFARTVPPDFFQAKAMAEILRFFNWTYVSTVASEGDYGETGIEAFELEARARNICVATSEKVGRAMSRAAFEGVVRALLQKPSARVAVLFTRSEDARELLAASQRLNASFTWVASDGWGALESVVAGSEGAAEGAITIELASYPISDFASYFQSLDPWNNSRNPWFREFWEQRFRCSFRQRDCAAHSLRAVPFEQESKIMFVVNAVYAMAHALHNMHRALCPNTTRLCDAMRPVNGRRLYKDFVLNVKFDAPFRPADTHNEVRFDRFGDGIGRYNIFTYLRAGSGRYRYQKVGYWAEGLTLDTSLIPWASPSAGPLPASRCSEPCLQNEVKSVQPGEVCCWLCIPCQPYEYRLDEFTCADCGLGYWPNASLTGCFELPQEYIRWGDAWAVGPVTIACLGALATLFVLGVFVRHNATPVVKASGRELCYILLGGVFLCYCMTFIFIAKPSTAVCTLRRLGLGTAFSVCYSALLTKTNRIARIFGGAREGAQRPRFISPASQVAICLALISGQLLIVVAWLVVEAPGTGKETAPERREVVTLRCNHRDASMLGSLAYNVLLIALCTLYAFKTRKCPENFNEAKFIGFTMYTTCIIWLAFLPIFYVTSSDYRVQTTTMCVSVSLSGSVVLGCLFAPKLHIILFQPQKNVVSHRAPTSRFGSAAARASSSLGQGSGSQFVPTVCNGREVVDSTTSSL

Row | Compound | EC50
1 | Fc1ccc(F)c(C2CCN(c3cnn4c(CC(F)(F)F)nnc4c3Cl)CC2)c1OC(F)F [Example 51, 8-Chloro-7-(4-(2-(difluoromethoxy)-3,6-difluorophenyl)piperidin-1-yl)-3-(2,2,2-trifluoroethyl)-[1,2,4]triazolo[4,3-b]pyridazine] | 3 nM
2 | FC(F)(F)Cc1nnc2c(Cl)c(N3CCC(c4cccc(Cl)c4Cl)CC3)cnn12 [Example 60, 8-Chloro-7-(4-(2,3-dichlorophenyl)piperidin-1-yl)-3-(2,2,2-trifluoroethyl)-[1,2,4]triazolo[4,3-b]pyridazine] | 94 nM
3 | FC(F)(F)c1c(N2CCC(c3ccccc3)CC2)cnn2c(CC3CC3)nnc12 [Example 7, 3-(Cyclopropylmethyl)-7-(4-phenylpiperidin-1-yl)-8-(trifluoromethyl)-[1,2,4]triazolo[4,3-b]pyridazine] | 3 nM
4 | Fc1ccccc1C1CCN(c2cnn3c(CC4CC4)nnc3c2C(F)(F)F)CC1 [Example 84, 3-(Cyclopropylmethyl)-7-(4-(2-fluorophenyl)piperidin-1-yl)-8-(trifluoromethyl)-[1,2,4]triazolo[4,3-b]pyridazine] | 4 nM
5 | Clc1c(N2CCN(c3ncccn3)CC2)cnn2c(CC3CC3)nnc12 [Example 15, 8-Chloro-3-(cyclopropylmethyl)-7-(4-(pyrimidin-2-yl)piperazin-1-yl)-[1,2,4]triazolo[4,3-b]pyridazine] | 280 nM
6 | Clc1c(N2CCC(c3cccnc3)CC2)cnn2c(CC3CC3)nnc12 [Example 82, 8-Chloro-3-(cyclopropylmethyl)-7-(4-(pyridin-3-yl)piperidin-1-yl)-[1,2,4]triazolo[4,3-b]pyridazine] | 809 nM
7 | FC(F)(F)Cc1nnc2c(Cl)c(N3CCC(c4ccccc4Cl)CC3)cnn12 [Example 45, 8-Chloro-7-(4-(2-chlorophenyl)piperidin-1-yl)-3-(2,2,2-trifluoroethyl)-[1,2,4]triazolo[4,3-b]pyridazine] | 48 nM
8 | COc1cccc(F)c1C1CC1CNc1cnn2c(CC3CC3)nnc2c1Cl (stereo not shown) [Example 39, 8-Chloro-3-(cyclopropylmethyl)-N-((2-(2-fluoro-6-methoxyphenyl)cyclopropyl)methyl)-[1,2,4]triazolo[4,3-b]pyridazin-7-amine] | 28 nM
9 | Fc1cc(OC(F)F)c(C2CCN(c3cnn4c(CC(F)(F)F)nnc4c3Cl)CC2)cc1F [Example 53, 8-Chloro-7-(4-(2-(difluoromethoxy)-4,5-difluorophenyl)piperidin-1-yl)-3-(2,2,2-trifluoroethyl)-[1,2,4]triazolo[4,3-b]pyridazine] | 6 nM
10 | Clc1c(NCC2(COc3ccccc3)CC2)cnn2c(CC3CC3)nnc12 [Example 21, 8-Chloro-3-(cyclopropylmethyl)-N-((1-(phenoxymethyl)cyclopropyl)methyl)-[1,2,4]triazolo[4,3-b]pyridazin-7-amine] | 2310 nM
11 | O=C1Oc2ccccc2C12CCN(c1cnn3c(CC(F)(F)F)nnc3c1Cl)CC2 [Example 63, 1′-(8-Chloro-3-(2,2,2-trifluoroethyl)-[1,2,4]triazolo[4,3-b]pyridazin-7-yl)-2H-spiro[benzofuran-3,4′-piperidin]-2-one] | 185 nM
12 | Clc1c(NCC2Cc3ccccc3C2)cnn2c(CC3CC3)nnc12 [Example 33, 8-Chloro-3-(cyclopropylmethyl)-N-((2,3-dihydro-1H-inden-2-yl)methyl)-[1,2,4]triazolo[4,3-b]pyridazin-7-amine] | 21 nM
13 | COc1cccc(F)c1C1CC1CNc1cnn2c(CC(F)(F)F)nnc2c1Cl (stereo not shown) [Example 40, 8-Chloro-N-((2-(2-fluoro-6-methoxyphenyl)cyclopropyl)methyl)-3-(2,2,2-trifluoroethyl)-[1,2,4]triazolo[4,3-b]pyridazin-7-amine] | 31 nM
14 | COc1ccc(C2CCN(c3cnn4c(CC(F)(F)F)nnc4c3Cl)CC2)c(OC)c1 [Example 38, 8-Chloro-7-(4-(2,4-dimethoxyphenyl)piperidin-1-yl)-3-(2,2,2-trifluoroethyl)-[1,2,4]triazolo[4,3-b]pyridazine] | 5 nM
15 | Clc1c(N2CCC(c3ccccn3)CC2)cnn2c(CC3CC3)nnc12 [Example 79, 8-Chloro-3-(cyclopropylmethyl)-7-(4-(pyridin-2-yl)piperidin-1-yl)-[1,2,4]triazolo[4,3-b]pyridazine] | 382 nM
16 | N#Cc1ccccc1C1CCN(c2cnn3c(CC4CC4)nnc3c2Cl)CC1 [Example 72, 2-(1-(8-Chloro-3-(cyclopropylmethyl)-[1,2,4]triazolo[4,3-b]pyridazin-7-yl)piperidin-4-yl)benzonitrile] | 15 nM
17 | COC(=O)c1ccccc1C1CCN(c2cnn3c(CC(F)(F)F)nnc3c2Cl)CC1 [Example 32, Methyl 2-(1-(8-chloro-3-(2,2,2-trifluoroethyl)-[1,2,4]triazolo[4,3-b]pyridazin-7-yl)piperidin-4-yl)benzoate] | 15 nM
18 | Clc1c(N2CCC(c3ccccc3)CC2)cnn2c(CC3CC3)nnc12 [Example 5, 8-Chloro-3-(cyclopropylmethyl)-7-(4-phenylpiperidin-1-yl)-[1,2,4]triazolo[4,3-b]pyridazine] | 19 nM
19 | CC(C)(C)Cc1nnc2c(Cl)c(N3CCN(c4ncccn4)CC3)cnn12 [Example 16, 8-Chloro-3-neopentyl-7-(4-(pyrimidin-2-yl)piperazin-1-yl)-[1,2,4]triazolo[4,3-b]pyridazine] | 437 nM
20 | Fc1ccc([C@H]2C[C@@H]2CNc2cnn3c(CC4CC4)nnc3c2Cl)cc1 [Example 11, 8-Chloro-3-(cyclopropylmethyl)-N-(((1S,2S)-2-(4-fluorophenyl)cyclopropyl)methyl)-[1,2,4]triazolo[4,3-b]pyridazin-7-amine] | 60 nM
21 | N#Cc1ccccc1C1CCN(c2cnn3c(CC(F)(F)F)nnc3c2C(F)(F)F)CC1 [Example 78, 2-(1-(3-(2,2,2-Trifluoroethyl)-8-(trifluoromethyl)-[1,2,4]triazolo[4,3-b]pyridazin-7-yl)piperidin-4-yl)benzonitrile] | 7 nM

Further lines, results first:

Row | EC50 | Compound
22 | 782 nM | COc1c(N2CCC(O)(c3ccc(F)cc3)CC2)ncn2c(CC3CC3)nnc12 [Example 14, 1-(3-(Cyclopropylmethyl)-8-methoxy-[1,2,4]triazolo[4,3-c]pyrimidin-7-yl)-4-(4-fluorophenyl)piperidin-4-ol]
23 | 18 nM | COc1ccc(C2CCN(c3cnn4c(CC5CC5)nnc4c3Cl)CC2)cc1 [Example 30, 8-Chloro-3-(cyclopropylmethyl)-7-(4-(4-methoxyphenyl)piperidin-1-yl)-[1,2,4]triazolo[4,3-b]pyridazine]
24 | 4 nM | COc1cccc(F)c1C1CCN(c2cnn3c(CC4CC4)nnc3c2C(F)(F)F)CC1 [Example 71, 3-(Cyclopropylmethyl)-7-(4-(2-fluoro-6-methoxyphenyl)piperidin-1-yl)-8-(trifluoromethyl)-[1,2,4]triazolo[4,3-b]pyridazine]
25 | 69 nM | FC(F)(F)c1c(N2CCC(c3ccccc3)CC2)ncn2c(CC3CC3)nnc12 [Example 4, 3-(Cyclopropylmethyl)-7-(4-phenylpiperidin-1-yl)-8-(trifluoromethyl)-[1,2,4]triazolo[4,3-c]pyrimidine]
26 | 519 nM | COc1c(N2CCC(c3ccc(F)cc3)CC2)ncn2c(CC3CC3)nnc12 [Example 12, 3-(Cyclopropylmethyl)-7-(4-(4-fluorophenyl)piperidin-1-yl)-8-methoxy-[1,2,4]triazolo[4,3-c]pyrimidine]
27 | 61 nM | Clc1c(N2CCC(Cc3ccccc3)CC2)ncn2c(CC3CC3)nnc12 [Example 8, 7-(4-Benzylpiperidin-1-yl)-8-chloro-3-(cyclopropylmethyl)-[1,2,4]triazolo[4,3-c]pyrimidine]
28 | 8 nM | Clc1c(N2CCC(c3ccccc3)CC2)ncn2c(CC3CC3)nnc12 [Example 1, 8-Chloro-3-(cyclopropylmethyl)-7-(4-phenylpiperidin-1-yl)-[1,2,4]triazolo[4,3-c]pyrimidine]
29 | 6 nM | COc1ccc(OC)c(C2CCN(c3cnn4c(CC5CC5)nnc4c3Cl)CC2)c1 [Example 35, 8-Chloro-3-(cyclopropylmethyl)-7-(4-(2,5-dimethoxyphenyl)piperidin-1-yl)-[1,2,4]triazolo[4,3-b]pyridazine]
30 | 38 nM | COC(=O)c1ccccc1C1CCN(c2cnn3c(CC4CC4)nnc3c2Cl)CC1 [Example 31, Methyl 2-(1-(8-chloro-3-(cyclopropylmethyl)-[1,2,4]triazolo[4,3-b]pyridazin-7-yl)piperidin-4-yl)benzoate]
31 | 4 nM | Fc1ccccc1C1CCN(c2ncn3c(CC4CC4)nnc3c2Cl)CC1 [Example 68, 8-Chloro-3-(cyclopropylmethyl)-7-(4-(2-fluorophenyl)piperidin-1-yl)-[1,2,4]triazolo[4,3-c]pyrimidine]
